Measurements: patent US9556165B2 (priority 2012, dated 2017)
Values after ≈ are worked out from the molar mass of the structure shown.

How the values were obtained:
Assay type in all cases: cell-based
[1] = system: P. aeruginosa 2297 (AmpC wt); test: MIC determination, broth microdilution (CLSI); conditions: for MIC: Pseudomonas aeruginosa, strain 7
[2] = system: P. aeruginosa 2297-con (AmpC derepressed); test: MIC determination, broth microdilution (CLSI); conditions: for MIC: Pseudomonas aeruginosa, read-out: strain 8 MIC, strain 8
S. maltophilia ICB7569 = test: MIC determination, broth microdilution (CLSI); conditions: for MIC: Stenotrophomonas maltophilia, ICB7569, strain 10
M. catarrhalis ICB489 = test: MIC determination, broth microdilution (CLSI); conditions: for MIC: Moraxella catarrhalis, ICB489, strain 12
S. aureus 133 = test: MIC determination, broth microdilution (CLSI); conditions: for MIC: Staphylococcus aureus, 133, strain 11, read-out: strain 11 MIC
E. coli J62 = test: MIC determination, broth microdilution (CLSI); conditions: for MIC: Escherichia coli, J62, strain 17, read-out: strain 17 MIC
E. cloacae 34654 = test: MIC determination, broth microdilution (CLSI); conditions: for MIC: Enterobacter cloacae, 34654, strain 3
M. morganii 126/3048 = test: MIC determination, broth microdilution (CLSI); conditions: for MIC: Morganella morganii, 126/3048, strain 5
A. baumannii ATCC15308 = test: MIC determination, broth microdilution (CLSI); conditions: for MIC: Acinetobacter baumannii, ATCC15308, strain 9
E. coli J62-TEM-3 = test: MIC determination, broth microdilution (CLSI); conditions: for MIC: Escherichia coli, J62TEM3, read-out: strain 18 MIC, strain 18
strain 21 = test: MIC determination, broth microdilution (CLSI)
B. fragilis 6688 = test: MIC determination, broth microdilution (CLSI); conditions: for MIC: Bacteroides fragilis, 6688, strain 15, read-out: strain 15 MIC
S. pneumoniae 113 = test: MIC determination, broth microdilution (CLSI); conditions: Streptococcus pneumoniae, 113, strain 14; read-out: strain 14 MIC
strain 19 = test: MIC determination, broth microdilution (CLSI)
C. freundii K21/3034 = test: MIC determination, broth microdilution (CLSI); conditions: for MIC: Citrobacter freundii, K21/3034, strain 4
P. aeruginosa PAO1 = test: MIC determination, broth microdilution (CLSI); conditions: for MIC: Pseudomonas aeruginosa, PAO1, strain 6
H. influenzae ATCC 49247 = test: MIC determination, broth microdilution (CLSI); conditions: for MIC: Haemophilus influenzae, ATCC49247, strain 13, read-out: strain 13 MIC
E. coli ATCC25922 = test: MIC determination, broth microdilution (CLSI); conditions: for MIC: Escherichia coli, ATCC25922, strain 1
strain 20 = test: MIC determination, broth microdilution (CLSI)
K. pneumoniae 60 = test: MIC determination, broth microdilution (CLSI); conditions: for MIC: Klebsiella pneumoniae, 60, strain 2
C. perfringens DSM756 = test: microbe, parasite or virus in culture; conditions: for MIC: Clostridium perfringens, DSM756, read-out: strain 16 MIC, strain 16

C[C@H]1[C@H](NC(=O)/C(=N\OCCOc2ccc(C(=N)N)cc2)c2csc(N)n2)C(=O)N1S(=O)(=O)O [Example 9, (2S,3S)-3-{[(2Z)-2-(2-Amino-1,3-thiazol-4-yl)-2-{[2-(4-carbamimidoylphenoxy)ethoxy]imino}acetyl]amino}-2-methyl-4-oxoazetidine-1-sulfonic acid]
MIC [1]: 2 µg/mL (≈ 3.91 µM)
MIC [2]: 16 µg/mL (≈ 31.3 µM)
MIC (S. maltophilia ICB7569): 32 µg/mL (≈ 62.6 µM)
MIC (M. catarrhalis ICB489): ≤ 0.063 µg/mL
MIC (S. aureus 133): ≤ 0.063 µg/mL
MIC (E. coli J62): 0.25 µg/mL (≈ 0.489 µM)
MIC (E. cloacae 34654): 0.125 µg/mL (≈ 0.244 µM)
MIC (M. morganii 126/3048): 0.125 µg/mL (≈ 0.244 µM)
MIC (A. baumannii ATCC15308): 0.5 µg/mL (≈ 0.977 µM)
MIC (E. coli J62-TEM-3): 16 µg/mL (≈ 31.3 µM)
MIC (strain 21): 0.125 µg/mL (≈ 0.244 µM)
MIC (B. fragilis 6688): 8 µg/mL (≈ 15.6 µM)
MIC (S. pneumoniae 113): 4 µg/mL (≈ 7.82 µM)
MIC (strain 19): 0.125 µg/mL (≈ 0.244 µM)
MIC (C. freundii K21/3034): 0.125 µg/mL (≈ 0.244 µM)
MIC (P. aeruginosa PAO1): 2 µg/mL (≈ 3.91 µM)
MIC (H. influenzae ATCC 49247): 0.25 µg/mL (≈ 0.489 µM)
MIC (E. coli ATCC25922): 0.125 µg/mL (≈ 0.244 µM)
MIC (strain 20): 0.125 µg/mL (≈ 0.244 µM)
MIC (K. pneumoniae 60): 0.125 µg/mL (≈ 0.244 µM)

C[C@H]1[C@H](NC(=O)/C(=N\OCCOc2ccc(C(=N)N)cc2)c2csc(N)n2)C(=O)N1OCS(=O)(=O)O [Example 12, {[(2S,3S)-3-{[(2Z)-2-(2-Amino-1,3-thiazol-4-yl)-2-{[2-(4-carbamimidoylphenoxy)ethoxy]imino}acetyl]amino}-2-methyl-4-oxoazetidin-1-yl]oxy}methanesulfonic acid]
MIC [1]: 8 µg/mL (≈ 14.8 µM)
MIC (S. maltophilia ICB7569): 8 µg/mL (≈ 14.8 µM)
MIC (M. catarrhalis ICB489): 0.25 µg/mL (≈ 0.462 µM)
MIC (S. aureus 133): 0.125 µg/mL (≈ 0.231 µM)
MIC (E. coli J62): 0.5 µg/mL (≈ 0.923 µM)
MIC (E. cloacae 34654): 0.5 µg/mL (≈ 0.923 µM)
MIC (M. morganii 126/3048): 0.25 µg/mL (≈ 0.462 µM)
MIC (A. baumannii ATCC15308): 4 µg/mL (≈ 7.39 µM)
MIC (E. coli J62-TEM-3): 8 µg/mL (≈ 14.8 µM)
MIC (strain 21): 0.25 µg/mL (≈ 0.462 µM)
MIC (B. fragilis 6688): 8 µg/mL (≈ 14.8 µM)
MIC (S. pneumoniae 113): 32 µg/mL (≈ 59.1 µM)
MIC (strain 19): 0.5 µg/mL (≈ 0.923 µM)
MIC (C. freundii K21/3034): 0.25 µg/mL (≈ 0.462 µM)
MIC (P. aeruginosa PAO1): 4 µg/mL (≈ 7.39 µM)
MIC (H. influenzae ATCC 49247): ≤ 0.063 µg/mL
MIC (C. perfringens DSM756): 16 µg/mL (≈ 29.5 µM)
MIC (E. coli ATCC25922): 0.5 µg/mL (≈ 0.923 µM)
MIC (strain 20): 0.25 µg/mL (≈ 0.462 µM)
MIC (K. pneumoniae 60): 0.25 µg/mL (≈ 0.462 µM)

Cc1cc(OCCO/N=C(\C(=O)N[C@@H]2C(=O)N(OS(=O)(=O)O)C2(C)C)c2csc(N)n2)ccc1C(=N)N [Example 13, (2Z)-2-(2-Amino-1,3-thiazol-4-yl)-2-{[2-(4-carbamimidoyl-3-methylphenoxy)ethoxy]imino}-N-[(3S)-2,2-dimethyl-4-oxo-1-(sulfooxy)azetidin-3-yl]ethanamide]
MIC [1]: 16 µg/mL (≈ 28.8 µM)
MIC [2]: 8 µg/mL (≈ 14.4 µM)
MIC (M. catarrhalis ICB489): 0.125 µg/mL (≈ 0.225 µM)
MIC (S. aureus 133): ≤ 0.063 µg/mL
MIC (E. coli J62): 0.5 µg/mL (≈ 0.9 µM)
MIC (E. cloacae 34654): 1 µg/mL (≈ 1.8 µM)
MIC (M. morganii 126/3048): 0.5 µg/mL (≈ 0.9 µM)
MIC (A. baumannii ATCC15308): 1 µg/mL (≈ 1.8 µM)
MIC (E. coli J62-TEM-3): 32 µg/mL (≈ 57.6 µM)
MIC (strain 21): 0.5 µg/mL (≈ 0.9 µM)
MIC (B. fragilis 6688): 4 µg/mL (≈ 7.2 µM)
MIC (S. pneumoniae 113): 4 µg/mL (≈ 7.2 µM)
MIC (strain 19): 0.5 µg/mL (≈ 0.9 µM)
MIC (C. freundii K21/3034): 0.25 µg/mL (≈ 0.45 µM)
MIC (P. aeruginosa PAO1): 8 µg/mL (≈ 14.4 µM)
MIC (H. influenzae ATCC 49247): ≤ 0.063 µg/mL
MIC (C. perfringens DSM756): 2 µg/mL (≈ 3.6 µM)
MIC (E. coli ATCC25922): 0.5 µg/mL (≈ 0.9 µM)
MIC (strain 20): 0.5 µg/mL (≈ 0.9 µM)
MIC (K. pneumoniae 60): 1 µg/mL (≈ 1.8 µM)

CC1(C)[C@H](NC(=O)/C(=N\OC(COc2ccc(C(=N)N)c(O)c2)C(=O)O)c2csc(N)n2)C(=O)N1OS(=O)(=O)O (mixture of isomers) [Example 34B, (2S and 2R)-2-({[(1Z)-1-(2-Amino-1,3-thiazol-4-yl)-2-{[(3S)-2,2-dimethyl-4-oxo-1-(sulfo-oxy)azetidin-3-yl]amino}-2-oxoethylidene]amino}oxy)-3-(4-carbamimidoyl-3-hydroxyphenoxy)propanoic acid]
strain 7 MIC [1]: 32 µg/mL
strain 8 MIC [2]: 32 µg/mL
strain 10 MIC (S. maltophilia ICB7569): 32 µg/mL
strain 12 MIC (M. catarrhalis ICB489): 0.5 µg/mL
strain 11 MIC (S. aureus 133): 0.25 µg/mL
strain 17 MIC (E. coli J62): 16 µg/mL
strain 3 MIC (E. cloacae 34654): 4 µg/mL
strain 5 MIC (M. morganii 126/3048): 4 µg/mL
strain 9 MIC (A. baumannii ATCC15308): 32 µg/mL
strain 18 MIC (E. coli J62-TEM-3): 32 µg/mL
strain 21 MIC (strain 21): 8 µg/mL
strain 19 MIC (strain 19): 4 µg/mL
strain 4 MIC (C. freundii K21/3034): 8 µg/mL
strain 6 MIC (P. aeruginosa PAO1): 32 µg/mL
strain 13 MIC (H. influenzae ATCC 49247): 8 µg/mL
strain 16 MIC (C. perfringens DSM756): 32 µg/mL
strain 1 MIC (E. coli ATCC25922): 8 µg/mL
strain 20 MIC (strain 20): 4 µg/mL
strain 2 MIC (K. pneumoniae 60): 8 µg/mL

CC1(C)[C@H](NC(=O)/C(=N\OC(COc2ccc(C(=N)N)nc2)C(=O)O)c2csc(N)n2)C(=O)N1OS(=O)(=O)O (mixture of isomers) [Example 36B, (2S and 2R)-2-({[(1Z)-1-(2-Amino-1,3-thiazol-4-yl)-2-{[(3S)-2,2-dimethyl-4-oxo-1-(sulfo-oxy)azetidin-3-yl]amino}-2-oxoethylidene]amino}oxy)-3-[(6-carbamimidoylpyridin-3-yl)oxy]propanoic acid]
strain 8 MIC [2]: 32 µg/mL
strain 10 MIC (S. maltophilia ICB7569): 16 µg/mL
strain 12 MIC (M. catarrhalis ICB489): 0.5 µg/mL
strain 11 MIC (S. aureus 133): 0.125 µg/mL
strain 17 MIC (E. coli J62): 4 µg/mL
strain 3 MIC (E. cloacae 34654): 2 µg/mL
strain 5 MIC (M. morganii 126/3048): 2 µg/mL
strain 9 MIC (A. baumannii ATCC15308): 32 µg/mL
strain 18 MIC (E. coli J62-TEM-3): 32 µg/mL
strain 21 MIC (strain 21): 2 µg/mL
strain 15 MIC (B. fragilis 6688; strain 15): 32 µg/mL
strain 19 MIC (strain 19): 2 µg/mL
strain 4 MIC (C. freundii K21/3034): 0.5 µg/mL
strain 6 MIC (P. aeruginosa PAO1): 16 µg/mL
strain 13 MIC (H. influenzae ATCC 49247): 4 µg/mL
strain 16 MIC (C. perfringens DSM756): 32 µg/mL
strain 1 MIC (E. coli ATCC25922): 2 µg/mL
strain 20 MIC (strain 20): 2 µg/mL
strain 2 MIC (K. pneumoniae 60): 1 µg/mL

C[C@H]1[C@H](NC(=O)/C(=N\OC(COc2ccc(C(=N)N)cc2)C(=O)O)c2csc(N)n2)C(=O)N1S(=O)(=O)O (mixture of isomers) [Example 26A, (2S and 2R)-2-({[(1Z)-1-(2-Amino-1,3-thiazol-4-yl)-2-{[(2S,3S)-2-methyl-4-oxo-1-sulfoazetidin-3-yl]amino}-2-oxoethylidene]amino}oxy)-3-(4-carbamidinoyl-phenoxy)propanoic acid]
strain 7 MIC [1]: 2 µg/mL
strain 8 MIC [2]: 8 µg/mL
MIC (S. maltophilia ICB7569): 16 µg/mL
strain 12 MIC (M. catarrhalis ICB489): ≦0.063 mg/L
MIC (S. aureus 133): ≤ 0.063 µg/mL
strain 17 MIC (E. coli J62): 0.125 µg/mL
strain 3 MIC (E. cloacae 34654): 0.125 µg/mL
strain 5 MIC (M. morganii 126/3048): ≦0.063 mg/L
MIC (A. baumannii ATCC15308): 8 µg/mL
MIC (E. coli J62-TEM-3): 32 µg/mL
strain 21 MIC (strain 21): 0.125 µg/mL
MIC (B. fragilis 6688): 8 µg/mL
MIC (S. pneumoniae 113): 32 µg/mL
strain 19 MIC (strain 19): ≦0.063 mg/L
strain 4 MIC (C. freundii K21/3034): ≦0.063 mg/L
strain 6 MIC (P. aeruginosa PAO1): 1 µg/mL
MIC (H. influenzae ATCC 49247): 2 µg/mL
strain 1 MIC (E. coli ATCC25922): ≦0.063 mg/L
strain 20 MIC (strain 20): 0.125 µg/mL
strain 2 MIC (K. pneumoniae 60): 0.031 µg/mL
